Test results from US20220118117A1, “MODULATORS OF METABOTROPIC GLUTAMATE RECEPTOR 4” (The General Hospital Corporation, priority 2019, published 2022).
Several values for one entry are separate records, joined by “and”; a condition that tells them apart may be missing. Equal values may be shown once.

Columns and labels:
[1] = microsomal stability; format: in vitro ADME, Sprague-Dawley rat; details: rat liver microsomes, NADPH
Procedure: First, Sprague-Dawley rat liver microsomes (0.5 mg/mL, Sigma-Aldrich, No. M9066) was incubated with PBS (50 mM, pH=7.4) in a reaction tube at 37° C. for 3 min. To the reaction tube were added the test compound (2 μM) and then cofactor, NADPH (1 mM), to start the reaction. The mixture was shaken in a water bath at 37° C. At different time points (0, 5, 10, 15, 30 min), aliquots (50 μL) were removed and added to 100 μl of cold acetonitrile with internal standard (25 μM) to quench the reaction. The precipitated material was by centrifugation (10,000×g, 10 min, 4° C.), and the supernatant was analyzed by RP-HPLC (Column: Phenomenex Luna© 5 μm, Cis, 100 Å, 250×4.6 mm). The RP-HPLC was carried out by using a 15-min gradient method: eluent A: 0.1% formic acid/H2O; eluent B: 0.1% formic acid/CH3CN; gradient: […]; 5% B to 95% B from 1 to 9 min, 95% B from 9 to 12 min, 95% to 5% B from 12 to 13 min, 5% B from 13 to 15 min; flow rate at 0.7 mL/min.
The in peak area ratio (test compound peak area at a time point/peak area at 0 min time point) was plotted against time and the gradient of the line was determined. Subsequently, the half-life (t1/2) was calculated as 0.693/k, where the elimination rate constant k equals to −gradient. V (μL/mg) was obtained as a ratio of volume of incubation […]/protein in the incubation (mg). Finally, the intrinsic clearance (CLint) (μL/min/mg protein) was calculated as V*0.693/t1/2.

[2] = solution stability; format: physicochemical
Procedure: Three pH values, 5, 7.4 and 9.4 were selected to check the solution stability. Aqueous solutions with different pH values were established using the following buffers: sodium acetate-KCl—HCl buffer (20 mM, pH 5.0), phosphate buffer (20 mM, pH 7.4), and boric acid-KCl—NaOH buffer (20 mM, pH 9.4). 891 μL of each pH buffer was placed in different tubes. 9 μL (1 mM) of the sample stock (4, 13, 15 and Diltiazem) was transferred to a particular buffer tube and mixed just before the time 0 min. The mixture was vortexed and incubated at 37° C. After the incubation at the different time points (0, 15, 30, 60, and 120 min), aliquots of 50 μL samples were quenched with 100 μL of ice-cold acetonitrile with 25 μM internal reference, respectively, and analyzed by HPLC. The percentage of the remaining intact compound was calculated by (peak area at the specific time point)/(peak area at 0 min)×100. Every sample was assayed three times.

[3] = target: T1, mGluR4 (Homo sapiens, UniProt Q14833); assay: competitive binding (radioligand replacement) assay with [3H]4 in mGluR4 transfected CHO cells; set-up: expressed in transfected cells; host or cells: CHO cells; details: 2 nM [3H]4, read-out: IC50 (nM), affinity to mGluR4
T1 sequence (Q14833 33-912): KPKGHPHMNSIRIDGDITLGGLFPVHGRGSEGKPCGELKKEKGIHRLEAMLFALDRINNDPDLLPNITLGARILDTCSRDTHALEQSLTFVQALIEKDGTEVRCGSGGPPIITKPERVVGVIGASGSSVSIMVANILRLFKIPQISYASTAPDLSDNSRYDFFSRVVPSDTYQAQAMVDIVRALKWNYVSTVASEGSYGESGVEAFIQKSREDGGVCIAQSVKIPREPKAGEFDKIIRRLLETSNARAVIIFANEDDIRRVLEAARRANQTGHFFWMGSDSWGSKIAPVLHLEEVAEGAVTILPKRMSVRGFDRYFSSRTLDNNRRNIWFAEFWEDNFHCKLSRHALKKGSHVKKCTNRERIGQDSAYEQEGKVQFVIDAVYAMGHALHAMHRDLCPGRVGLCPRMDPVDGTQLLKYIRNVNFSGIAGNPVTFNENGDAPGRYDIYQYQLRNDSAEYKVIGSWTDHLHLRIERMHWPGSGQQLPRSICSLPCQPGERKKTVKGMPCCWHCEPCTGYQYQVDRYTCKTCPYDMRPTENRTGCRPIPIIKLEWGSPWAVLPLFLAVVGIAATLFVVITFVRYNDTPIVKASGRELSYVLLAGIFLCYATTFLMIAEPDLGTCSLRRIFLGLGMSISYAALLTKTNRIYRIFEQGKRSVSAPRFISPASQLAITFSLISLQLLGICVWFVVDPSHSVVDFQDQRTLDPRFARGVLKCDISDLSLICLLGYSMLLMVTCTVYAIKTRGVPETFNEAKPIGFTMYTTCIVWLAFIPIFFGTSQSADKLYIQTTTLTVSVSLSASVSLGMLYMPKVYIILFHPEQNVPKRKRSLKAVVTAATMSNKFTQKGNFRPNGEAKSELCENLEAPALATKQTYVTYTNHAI
Procedure: In Vitro mGluR4 Binding Assay. CHO cells expressing mGluR4 were used for all binding assay protocols. For competitive binding, 2 nM of [^3H]4 was used together with increased concentrations of test compounds ranging from 0.01 nM to 10 μM. Each test tube contained 50 000 freshly harvested CHO cells expressing mGluR4 cultured in HAMs cell culture medium with 100 nM of glutamate, penicillin-streptomycin (100 units), and 1 mM G418. [3H]4 (2 nM) was added to the cell extract with and without test compounds on ice and then incubated for 30 min at room temperature. Samples were centrifuged at 1200 rpm for 10 min at 4° C. and washed three times with a cold cell culture medium as a washing buffer. Samples were lysed by adding 100 μL of 0.5% NaOH and heated using a heating block (56° C., 30 min). Samples were cooled with an ice bath and transferred to Solvent-Saver scintillation vials (VWR International LLC.). To obtain binding parameters, the scintillation liquid (PerkinElmer, Optima Gold) was added prior to counting with a scintillation counter (Packard TriCarb Model, 1 min/vial). Nonspecific binding was determined using 10 μM of nonradioactive test compound, and specific binding was determined by extracting the nonspecific binding from total binding. All measurements were done in triplicate and analyzed with GraphPad Prism software (GraphPad Software Inc.).

[4] = plasma stability; format: in vitro ADME; details: rat plasma; for Plasma stability, remaining of the intact test compound: 37° C.
Procedure: Briefly, each tube is added 882 μL of 1:1 diluted rat plasma with phosphate buffer (pH 7.4). 18 μL (100 μM) of DMSO stock solution of the test compound (4, 13 and 15) or positive control compound (Diltiazem) was added to make a final compound concentration 2 μM in the plasma solution and final DMSO content 2%. The mixture was incubated at 37° C. After the incubation at 0, 15, 30, 60, and 120 min time points, aliquots of 50 μL samples were quenched with 100 μL of ice-cold acetonitrile with 25 μM of the internal reference (for HPLC analysis), respectively. The quenched samples were centrifuged at 10,000×g, and the supernatant was analyzed by HPLC. The percentage of remaining intact test compound was calculated by (peak area at the specific time point)/(peak area at 0 min)×100. Every sample was assayed three times.

[5] = target: T1, mGluR4; assay: GloSensor cAMP biosensor assay, mGluR4 PAM and agonist activity; format: cell-based; set-up: expressed in transfected cells; details: in presence of EC20 concentration of agonist (1 μM L-SOP); read-out: EC50, mGluR4 PAM activity
Procedure: Cell Culture. HEK-293 cells were maintained with complete Dulbecco's modified Eagle's medium (DMEM), which was composed of 10% fetal bovine serum (FBS), 2 mM L-glutamine, 100 units/mL penicillin G, 100 μg/mL streptomycin at 37° C. in the presence of 5% CO2. HEK-293 stable cell lines with tetracycline inducible expression of mGluR1, mGluR2, mGluR4, mGluR6 or mGluR8 were maintained with complete DMEM with Hygromycin B (100 μg/mL), Blasticidin (15 μg/mL) at 37° C. in the presence of 5% CO2.
cAMP assay. The Gi/o coupled receptors (mGluR2, mGluR3, mGluR4, mGluR6 and mGluR8) were tested using cAMP assay. Promega's split luciferase based GloSensor cAMP biosensor technology was used in determining Gi-GPCR mediated cAMP production in live cells. On the cells stably expressing mGluR2, mGluR3, mGluR4, mGluR6 or mGluR8, GloSensor cAMP DNA construct was transfected overnight. Cells were seeded into PLL coated 384-well white clear bottom cell culture plates with complete BME Buffer with Tetracycline (1 μg/mL) at a density of 20,000 cells for another 24 h. The cell medium was removed and then 20 μL of buffer was loaded. […] Luminescence was counted in a Trilux luminescence counter. Data were analyzed with Prizm 5.0 (GraphPad software).
Secondary assays—Dose-response assays. […] For each compound, the results from four replicates were averaged and then either EC50 or IC50 values were calculated by non-linear regression using the 4-parameter logistic equation. […]
In sum, the mGluR4 PAM activity was determined using Promega's split luciferase based GloSensor cAMP biosensor assay (refs. 41-42). mGluR4 is coupling to Gαi protein to inhibit adenylate cyclase, which converts ATP to cAMP, which plays an important role in many signal transduction pathways. […] The mGluR4 PAM activity of 15 was evaluated in presence of EC20 concentration of agonist (1 μM L-SOP) by measuring changes in intracellular cAMP concentration.

[6] = target: T2, mGluR4 (Rattus norvegicus, UniProt P31423); assay: PET blocking studies of [18F]15 binding; format: in vivo, Sprague Dawley rats
T2 construct: from tissue; host or cells: brain of living male Sprague Dawley rats
T2 sequence (P31423 33-912): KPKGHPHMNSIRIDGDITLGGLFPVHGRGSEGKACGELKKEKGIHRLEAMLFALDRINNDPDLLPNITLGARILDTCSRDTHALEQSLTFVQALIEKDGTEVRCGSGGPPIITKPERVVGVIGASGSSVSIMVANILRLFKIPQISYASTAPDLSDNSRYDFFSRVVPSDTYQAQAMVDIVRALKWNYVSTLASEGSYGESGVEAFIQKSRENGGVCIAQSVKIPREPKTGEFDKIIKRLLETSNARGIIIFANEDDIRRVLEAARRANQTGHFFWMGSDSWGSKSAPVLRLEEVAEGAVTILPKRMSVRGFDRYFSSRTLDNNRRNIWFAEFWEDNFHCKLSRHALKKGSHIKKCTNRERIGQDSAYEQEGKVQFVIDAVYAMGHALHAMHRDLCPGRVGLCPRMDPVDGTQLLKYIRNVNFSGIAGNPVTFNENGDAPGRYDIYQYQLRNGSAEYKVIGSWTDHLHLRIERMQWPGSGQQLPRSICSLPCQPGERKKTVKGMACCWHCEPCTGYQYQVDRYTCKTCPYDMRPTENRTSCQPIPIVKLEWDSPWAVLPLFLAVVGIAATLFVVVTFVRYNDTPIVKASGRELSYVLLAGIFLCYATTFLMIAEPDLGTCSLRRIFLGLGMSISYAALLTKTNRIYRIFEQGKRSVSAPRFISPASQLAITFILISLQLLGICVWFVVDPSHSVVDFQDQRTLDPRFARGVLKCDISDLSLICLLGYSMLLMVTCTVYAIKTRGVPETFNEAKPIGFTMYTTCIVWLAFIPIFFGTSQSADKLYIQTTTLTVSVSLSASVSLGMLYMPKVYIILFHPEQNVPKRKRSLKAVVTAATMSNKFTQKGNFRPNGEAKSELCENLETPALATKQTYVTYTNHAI
Procedure: PET Imaging of [^18F]15 in Rats. Altogether 24 normal male Sprague Dawley rats were used for the imaging studies comprising 15 baseline studies and 15 blocking studies. Rats were anaesthetized with isoflurane/nitrous oxide (1.0-1.5% isoflurane, with oxygen flow of 1-1.5 L/min), and catheter was installed into tail vein for the administration of [^18F]15. Dynamic volumetric PET data was acquired with a PET-CT scanner for 60 min (Triumph-II, Tri-Foil Imaging, Northridge, Calif.). The vital signals such as heart rate and respiration rate were monitored during scanning period. PET data acquisition was started immediately after administration of radioactivity with the dose range of 18-34 MBq depending on the size of the rat followed by CT imaging to obtain anatomical information and data for attenuation correction of PET data. PET data was processed by using maximum-likelihood expectation-maximization (MLEM) algorithm with 30 iterations to dynamic volumetric images, and corrected for uniformity, scatter, and attenuation. The CT data was processed by the modified Feldkamp algorithm using matrix volumes of 512×512×512 and pixel size of […]. Co-registration of CT and PET images and analysis of PET images were carried out using PMOD3.2 software (PMOD Technology, Zurich, Switzerland).
For blocking studies, the same scanning protocols were used as for the baseline studies. For mGluR4 blocking experiments, 1, 2 or 3 mg/kg of 13 or 15 dissolved in a saline solution with 10% DMSO, 5% Tween-20 and 85% PBS was injected 1 min before iv administration of [^18F]15.

| SMILES | The microsome stability Clint (μL/min/mg protein) [1] [μL/min/mg protein] | The microsome stability t1/2 [1] | The solution stability, The intact ± SEM at 120 min (%) ([2]; pH = 5.0, 37° C.) | The solution stability, The intact ± SEM at 120 min (%) ([2]; pH = 7.4, 37° C.) | The solution stability, The intact ± SEM at 120 min (%) ([2]; pH = 9.4, 37° C.) | IC50 [3] [nM] | Plasma stability, remaining of the intact test compound ([4]; 0 min) [%] | Plasma stability, remaining of the intact test compound ([4]; 15 min) [%] | Plasma stability, remaining of the intact test compound ([4]; 30 min) [%] | Plasma stability, remaining of the intact test compound ([4]; 60 min) [%] | Plasma stability, remaining of the intact test compound ([4]; 120 min) [%] | The plasma stability, The intact ± SEM at 120 min (%) ([4]; 120 min) | EC50 [5] [nM] | blocking effect on [18F]15 binding ([6]; 1 mg/kg, pre-administration) | blocking of [18F]15 binding in the whole brain ([6]; blocking agent injected 1 min before [18F]15) | blocking of [18F]15 binding in striatum ([6]; dose 1 mg/kg) [%] | blocking of [18F]15 binding in striatum ([6]; dose 2 mg/kg) [%] | blocking of [18F]15 binding in striatum ([6]; dose 3 mg/kg) [%] |
| --- | --- | --- | --- | --- | --- | --- | --- | --- | --- | --- | --- | --- | --- | --- | --- | --- | --- | --- |
| COc1cc(NC(=O)c2ccccn2)ccc1Cl [Compound 4] | 96.2 | 14.41 min and 14.4 min | 92.7 ± 3.1 | 97.3 ± 1.1 | 89.1 ± 2.1 | 5.1 | 100.00 ± 4.65 | 94.45 ± 1.65 | 97.56 ± 11.8 | 100.35 ± 8.04 | 98.21 ± 6.32 | 98.2 ± 6.3 |  |  |  |  |  |  |
| c1ccc(Nc2nc3c(s2)CCCc2[nH]ncc2-3)nc1 [Compound 11] |  |  |  |  |  |  |  |  |  |  |  |  | 55 |  |  |  |  |  |
| CSc1cc(NC(=O)c2ccccn2)ccc1Cl [Compound 13] | 54.8 | 25.30 min | 85.9 ± 0.8 | 87.9 ± 3.4 | 89.3 ± 1.3 | 3.4 | 100.00 ± 0.21 | 95.34 ± 12.08 | 95.27 ± 7.76 | 93.62 ± 8.76 | 91.52 ± 2.49 | 91.5 ± 2.5 |  | 25-30% | 22-25% | 18 | 20 | 28 |
| COc1ccc([C@@H]2Sc3ccccc3N(CCN(C)C)C(=O)[C@@H]2OC(C)=O)cc1 [Diltiazem] |  |  | 94.7 ± 1.4 | 99.0 ± 5.7 | 69.8 ± 2.6 |  | 100.00 ± 8.98 | 87.33 ± 9.53 | 75.23 ± 4.03 | 58.91 ± 13.39 | 48.97 ± 10.63 | 49.0 ± 10.6 |  |  |  |  |  |  |
